Test results as given in patent publication US20190300882A1, “METHODS OF TREATING NEUROBLASTOMA AND REAGENTS THEREFOR” (GARVAN INSTITUTE OF MEDICAL RESEARCH, priority 2016, published 2019).

Legend:
[1] = system: SK-N-DZ MYCN-amplified neuroblastoma cell line; assay: Secondary validation screen of synthetic lethal miRNAs with low dose IC30 chemotherapy, additional cell line; type: cell-based; details: for Additional cell line Viability (% of control) SKNDZ DXR: miRNA mimic + low dose IC30 doxorubicin; for Additional cell line Viability (% of control) SKNDZ VCR: miRNA mimic + low dose IC30 vincristine; for Additional cell line Viability (% of control) SKNDZ Vehicle: miRNA mimic + vehicle
Experimental: (§1) KELLY cells were grown in 10% FCS/RPMI as described in Example 1 and reverse transfected in 384-well plate format with 25 nM of a miRNA from the Dharmacon microRNA mimic Library (version 16.0) using liquid-handling robot Calliper Sciclone ALH3000 according to the conditions described in Table 3. After 24 hours, media was changed using a BioTek 406. Media was again changed after 48 hours and 96 hours using a BioTek 406, and at each of those time points low dose IC30 of vincristine or doxorubicin was added to the culture. 144 hours post-transfection, cell viability was determined using CellTiter-Glo luminescent assay (Promega) at 1:2 dilution. Luminescence measurements were taken on the Synergy H4 high-throughput multimode microplate reader as described in Example 1. All screens were performed in duplicates. The experimental design and timeline for this screen are illustrated in FIGS. 5 and 6, respectively.
(§2) The secondary validation screens were performed in accordance with the genome-wide screens described in Example 1 and Example 2, respectively, with the exception that an additional MYCN-amplified neuroblastoma cell line (SK-N-DZ) was added to each screen.
(§3) Furthermore, five additional non-active miRNAs discovered to have no measureable effect across all treatment groups of the genome-wide screen (‘non-lethal’ miRNAs) were included as negative controls.

KELLY cells [2] = assay: Secondary validation screen of synthetic lethal miRNAs with low dose IC30 chemotherapy, cell viability; type: cell-based; details: for synthetic lethality with chemotherapy: in both Kelly and SKNDZ MYCN-amplified cells, secondary screen; for Secondary screen Viability (% of control) Kelly DXR: miRNA mimic + low dose IC30 doxorubicin; for Secondary screen Viability (% of control) Kelly VCR: miRNA mimic + low dose IC30 vincristine; for Secondary screen Viability (% of control) Kelly Vehicle: miRNA mimic + vehicle
Experimental: as §1, §2, §3

IMR-90 cells = assay: Cell toxicity screen of synthetic lethal miRNAs in non-cancer cells; details: for cell viability in non-cancer cells, DXR (% of control): IMR-90, miRNA + low dose IC30 doxorubicin; for cell viability in non-cancer cells, VCR (% of control): IMR-90, miRNA + low dose IC30 vincristine; for cell viability in non-cancer cells, Media (% of control): IMR-90, miRNA alone (media)
Experimental: The cell toxicity screens were performed in IMR-90 cells (normal human fibroblast cells, ATCC).

KELLY cells [3] = assay: Primary miRNA mimic screen in combination with low dose IC30 of vincristine or doxorubicin, cell viability; type: cell-based; details: for Primary screen Viability (% of control) Kelly DXR: miRNA mimic 25 nM + low dose IC30 doxorubicin; for Primary screen Viability (% of control) Kelly VCR: miRNA mimic 25 nM + low dose IC30 vincristine; for Primary screen Viability (% of control) Kelly Vehicle: miRNA mimic 25 nM + vehicle
Experimental: To systematically identify miRNAs that affect viability and survival of neuroblstoma cells in combination with chemotherapy, a further functional miRNA screen was performed using the 1200 miRNAs from the miRIDIAN miRNA mimic Library (version 16.0; Dharmacon) in combination with low dose IC30 of vincristine or doxorubicin in the two neuroblastoma cancer cell lines. In doing so, the inventors identified miRNAs which result in a lethal phenotype to neuroblastoma cells when administered in combination with low dose IC30 chemotherapy (hereinafter referred to as ‘synthetic lethal’ miRNAs). […] After 24 hours, media was changed using a BioTek 406. […] Luminescence measurements were taken on the Synergy H4 high-throughput multimode microplate reader as described in Example 1. All screens were performed in duplicates.

| Substance | Additional cell line Viability (% of control) SKNDZ DXR [1] | Additional cell line Viability (% of control) SKNDZ VCR [1] | Additional cell line Viability (% of control) SKNDZ Vehicle [1] | synthetic lethality with chemotherapy (KELLY cells [2]) | Secondary screen Viability (% of control) Kelly DXR (KELLY cells [2]) | Secondary screen Viability (% of control) Kelly VCR (KELLY cells [2]) | Secondary screen Viability (% of control) Kelly Vehicle (KELLY cells [2]) | cell viability in non-cancer cells, DXR (% of control) (IMR-90 cells) | cell viability in non-cancer cells, VCR (% of control) (IMR-90 cells) | cell viability in non-cancer cells, Media (% of control) (IMR-90 cells) | Primary screen Viability (% of control) Kelly DXR (KELLY cells [3]) | Primary screen Viability (% of control) Kelly VCR (KELLY cells [3]) | Primary screen Viability (% of control) Kelly Vehicle (KELLY cells [3]) | activity in IMR90 cells (IMR-90 cells; even when administered in combination with a chemotherapeutic agent) |
| --- | --- | --- | --- | --- | --- | --- | --- | --- | --- | --- | --- | --- | --- | --- |
| hsa-miR-515-3p (guide GAGUGCCUUCUUUUGGAGCGUU; chemistry not given here; listed as Homo sapiens) | 24 % of control | 70 % of control | 85 % of control | substantial synthetic lethality | 42 % of control | 73 % of control | 82 % of control | 50 % of control | 51 % of control | 59 % of control | 38 % of control | 56 % of control | 84 % of control | – |
| hsa-miR-3924 (AUAUGUAUAUGUGACUGCUACU; chemistry not given here; listed as Homo sapiens) | 41 % of control | 81 % of control | 85 % of control | – | 46 % of control | 57 % of control | 75 % of control | – | – | – | 35 % of control | 40 % of control | 72 % of control | – |
| hsa-miR-99b-5p (guide CACCCGUAGAACCGACCUUGCG; chemistry not given here; listed as Homo sapiens) | 36 % of control | 61 % of control | 93 % of control | substantial synthetic lethality | 29 % of control | 44 % of control | 67 % of control | 72 % of control | 75 % of control | 87 % of control | 28 % of control | 49 % of control | 65 % of control | minimal activity |
| hsa-miR-449a (guide UGGCAGUGUAUUGUUAGCUGGU; chemistry not given here; listed as Homo sapiens) | 49 % of control | 44 % of control | 71 % of control | – | 83 % of control | 35 % of control | 75 % of control | – | – | – | 62 % of control | 22 % of control | 72 % of control | – |
| hsa-miR-34a-5p (UGGCAGUGUCUUAGCUGGUUGU; chemistry not given here; listed as Homo sapiens) | 74 % of control | 57 % of control | 92 % of control | substantial synthetic lethality | 98 % of control | 35 % of control | 96 % of control | 53 % of control | 63 % of control | 46 % of control | 70 % of control | 36 % of control | 72 % of control | – |
